Experimental data published in patent US9238034B2, “FN14 antagonists and therapeutic uses thereof” (THE TRANSLATIONAL GENOMICS RESEARCH INSTITUTE, priority 2013, dated 2016).

Assays:
[1] = test system: TNFα-induced NF-κB activity; assay: Counter-screen NF-κB luciferase assay, NF-κB-Luc reporter cells stimulated with TNFα; type: cell-based, human
Method: Briefly, Fn14-NF-κB-Luc reporter cells, (Fn14 overexpressing HEK293 NF-κB luciferase cells), were seeded in tissue culture treated white 96-well plates at 1×10^4 cells/well in 80 μL Opti-MEM media (Invitrogen) and incubated for 48 hr at 37° C. After 48 hr incubation, 10 μL of the drug solution (200 μM) in DMSO was added to the designated wells at a final concentration of 20 μM. After 1 hr of drug incubation at 37° C., 10 μL of 10× purified recombinant TWEAK (Peprotech Inc.; 300 ng/mL) in 1 mg/mL BSA in PBS was added to each well and incubated for 5 hr at 37° C. DMSO alone was used as a negative control whereas anti-TWEAK antibody suspended in DMSO was used as a positive control for the assay. Luminescent signal was determined using Bright-Glo assay kit (Promega, Madison, Wis.) according to the manufacturer's instructions and normalized to negative control. A counter-screen assay was carried out using TNFα to stimulate NF-κB activity in NF-κB-Luc reporter cells (HEK293 NF-κB luciferase cells). The counter-screen assay was performed similar to the drug screening assay described above, except 10 μL of 10× purified recombinant TNFα (R&D Scientific; 300 ng/mL) in 1 mg/mL BSA in PBS was added to each well instead of TWEAK for NF-κB activation. […] IC50 values for dose response curve were determined using the curve fitting functionality of GraphPad Prism software.

TWEAK-Fn14 signaling = assay: Cell based NF-κB luciferase reporter assay, Fn14-NF-κB-Luc cells stimulated with TWEAK; parameters: species or system human
Method: NF-κB luciferase reporter Assay. The capacity of sTWEAK or sTWEAK variants to activate Fn14 signaling was evaluated using engineered reporter cell lines that express luciferase upon NF-κB activation. Two reporter cell lines were utilized for these experiments. HEK293 NF-κB luciferase (courtesy of Dr. Jeff Winkles) were generated by transfecting HEK293 cells with a reporter plasmid containing 5 copies of a consensus NF-κB binding site upstream of a minimal CMV promoter driving expression of firefly luciferase. The second cell line, designated HEK293 NF-κB luciferase Fn14 FL, was generated by stably transfecting the HEK293 NF-κB luciferase cell line with full length Fn14. To assay the binding of sTWEAK or sTWEAK variants to Fn14, reporter cells were seeded in tissue culture treated white 96-well plates at 1×10^4 cells/well in 80 μL Opti-MEM media (Invitrogen) and incubated for 48 hr at 37° C. After 48 hr incubation, 20 μL of 5× purified recombinant TWEAK (Peprotech Inc.; 150 ng/mL) in 1 mg/mL BSA in PBS was added to each well and incubated for 5 hr at 37° C. as positive control. Similarly, equivalent amounts of sTWEAK or sTWEAK variant prepared via IVTTas determined using ELISA assay described above was added in 20 μl. IVTT solution lacking a cDNA template in 1 mg/mL BSA in PBS and 1 mg/mL BSA in PBS alone was used as an additional control. At the end of 5 hr incubation, the luminescent signal was determined using Bright-Glo assay kit (Promega, Madison, Wis.) according to the manufacturer's instructions.
Briefly, Fn14-NF-κB-Luc reporter cells, (Fn14 overexpressing HEK293 NF-κB luciferase cells), were seeded in tissue culture treated white 96-well plates at 1×10^4 cells/well in 80 μL Opti-MEM media (Invitrogen) and incubated for 48 hr at 37° C. […] Luminescent signal was determined using Bright-Glo assay kit (Promega, Madison, Wis.) according to the manufacturer's instructions and normalized to negative control. […] IC50 values for dose response curve were determined using the curve fitting functionality of GraphPad Prism software.

O=C(c1cn(-c2cccc(Cl)c2)nn1)N1CCSCC1 [Compound L524-0366]
IC50 ([1]; Homo sapiens, NF-κB-Luc cells stimulated with TNFα, 0.75 μM to 250 μM, read-out: IC50, TNFα stimulated luciferase induction): 31 µM
inhibition of TNFα-induced NF-κB driven luciferase activity ([1]; NF-κB-Luc cells, 20 μM): only minor inhibition
inhibition of TWEAK-induced NF-κB driven luciferase activity (TWEAK-Fn14 signaling; Fn14-NF-κB-Luc cells, 20 μM): significant inhibition
IC50 (TWEAK-Fn14 signaling; Homo sapiens, Fn14-NF-κB-Luc cells stimulated with TWEAK, 0.75 μM to 250 μM, read-out: IC50, TWEAK-Fn14 stimulated luciferase induction): 7.8 µM
fold higher inhibitory activity against TWEAK-Fn14 signaling (TWEAK-Fn14 signaling; TWEAK/Fn14-NF-κB-Luc versus TNFα/NF-κB-Luc IC50): approximately 5 fold
